{
  "source": "patent US20260151367A1",
  "about": "“KIT TO PROMOTE DEVELOPMENTAL MYELINATION” (SOCIÉTÉ DES PRODUITS NESTLÉ S.A., priority 2022, published 2026)",
  "key": {"[1]": {"tested_on": "myelin water fraction (MWF)", "experiment": "Random forest regression with feature selection for nutrients across ages", "type": "in vivo, human", "conditions": "listed in order of average importance after log Age", "from_the_text": "(§1) A linear model, like, was fitted to the dataset, all ages included, for each nutrient. Linear models with significant and positive coefficients for the nutrient intake terms were considered as indicative of a linear positive correlation with myelin. The myelin water fraction was Box Cox transformed to make it more symmetric. In addition, to account for possibly non-linear associations and for correlations between the nutrients, we performed a regression model using a random forest and used a feature selection algorithm for finding all relevant variables.\nFIG. 2 compares the values of the transformed MWF with the values predicted by the random forest, on a test set."}, "[2]": {"tested_on": "myelin water fraction (MWF)", "experiment": "Linear model of myelin versus nutrient intake, all ages included", "type": "in vivo, human", "conditions": "for association with myelin levels in age-adjusted models across age windows: all ages, linear model; for nutIntake*logAge estimate / nutIntake estimate: linear model across ages, Box Cox transformed MWF; for nutIntake*logAge estimate: coefficient of the intake x log age interaction term; for nutIntake estimate: coefficient of the nutrient intake term", "description": "The inventors have investigated the developmental dynamics of nutrient-myelin interactions from infancy to early childhood, using myelin imaging as a marker for brain maturation. Brain neuroimaging and infant nutritional intake information were analyzed from 293 children from a longitudinal cohort study in the US. A sliding window approach was used to investigate the relationship between the nutrient intake and brain region myelination over a continuous set of age windows.\nFor inclusion in the analysis of the present study, 293 children between 6 months and 60 months of age were selected who met the following criteria: 1. Singleton full-term (>37 weeks) pregnancy; 2. Uncomplicated pregnancy (i.e., no reports of pre-eclampsia, gestational hypertension or gestation diabetes mellitus, GDM); 3. No reports of abnormalities on fetal ultrasound; 4. Infant 5 minute APGAR scores ≥8; 5. Infant birth weight greater than 1500 g; 6. No reported history of neurological trauma in the child; 7. No reported sibling or parental psychiatric history, including autism; and 8. No reports of major depressive disorder requiring medication in the mother during pregnancy or in the 6 months prior to becoming pregnant. In addition, children had to have a successful MRI scan and time-matched nutrition intake information for at least one 24-hour period within a week of the MRI.\nFrom the acquired mcDESPOT data, the myelin water fraction (MWF) was calculated using a processing pipeline that includes linear alignment of the SPGR, IR-SPGR, and bSSFP images to account for subtle intra-scan head movement, non-parenchyma voxel removal, and correction of flip angle errors and off-resonance inhomogeneities using DESPOT1-HIFI and DESPOT2-FM. A 3-pool tissue model was fit to the multi-angle SPGR and bSSFP data to estimate the MWF, a surrogate and non-invasive measure of myelin content. The MWF images (maps) were then non-linearly aligned to a common analysis space in approximate MNI space using a previously described multi-step approach that first aligns the subject's high flip angle T1 weighted SPGR image to one of 14 age-specific templates and then to an overall study-specific template using non-linear 3D deformation, ANTS. The calculated transformation matrices are then applied to the quantitative MWF maps.\nNutrient intake data was collected through the Automated Self-Administered 24-hour dietary assessment tool (ASA-24). The average daily nutrient intake per scan age was calculated, resulting in 293 observations with 88 nutrients. Values for amino acids and phospholipids, including sphingomyelin, were retrieved from the relevant United States Department of Agriculture (USDA) databases. The USDA choline database contains the values of free choline, glycerophosphocholine, phosphocholine, phosphatidylcholine and sphingomyelin for about 630 foods. […] The oligosaccharides 3′SL and 6′SL are only found in milk products, values of 114 and 23 mg/100 g were used for their respective concentrations in cow's milk. For the estimation of oligofructose, the inventors based their calculations on Moshfegh et al. J. Nutr. 1999; 129(7 Suppl): 1407s-11s. We then mapped the foods reported in ASA-24 to the corresponding items in the USDA database and calculated the daily totals.\nas §1"}, "[3]": {"tested_on": "myelination", "conditions": "potentially via a reduction in sialylated binding targets for the myelin associated glycoprotein; cited from earlier work"}},
  "data": [
    {"molecule": "CC(=O)N[C@H]1[C@H]([C@H](O)[C@H](O)CO)O[C@@](O[C@H]2[C@@H](O)[C@@H](CO)O[C@@H](O[C@H]3[C@H](O)[C@@H](O)C(O)O[C@@H]3CO)[C@@H]2O)(C(=O)O)C[C@@H]1O", "note": "(stereo partly shown) [3′SL, 3′-sialyllactose]", "values": [
      {"measurement": "variables selected by the random forest model, sorted by average importance", "setting": "[1]", "result": "selected by the random forest model"},
      {"measurement": "association with myelin levels in age-adjusted models across age windows", "setting": "[2]", "result": "linked with higher myelin levels"},
      {"measurement": "nutIntake*logAge estimate", "setting": "[2]", "result": 0.000},
      {"measurement": "nutIntake estimate", "setting": "[2]", "result": 0.002}
    ]},
    {"molecule": "CC(=O)N[C@H]1[C@H]([C@H](O)[C@H](O)CO)O[C@@](OC[C@H]2O[C@@H](O[C@H]3[C@H](O)[C@@H](O)[C@H](O)O[C@@H]3CO)[C@H](O)[C@@H](O)[C@H]2O)(C(=O)O)C[C@@H]1O", "note": "[6′SL, 6′-sialyllactose]", "values": [
      {"measurement": "impact on myelination in a preclinical study", "setting": "[3]", "result": "impact myelination"},
      {"measurement": "association with myelin levels in age-adjusted models across age windows", "setting": "[2]", "result": "linked with higher myelin levels"},
      {"measurement": "nutIntake*logAge estimate", "setting": "[2]", "result": "−0.001"},
      {"measurement": "nutIntake estimate", "setting": "[2]", "result": 0.009}
    ]},
    {"molecule": "[Ca+2]", "note": "[Calcium]", "values": [
      {"measurement": "variables selected by the random forest model, sorted by average importance", "setting": "[1]", "result": "selected by the random forest model"}
    ]},
    {"molecule": "CC1=C(/C=C/C(C)=C/C=C/C(C)=C/C=C/C=C(C)/C=C/C=C(C)/C=C/C2=C(C)CCCC2(C)C)C(C)(C)CCC1", "note": "[Carotene, beta]", "values": [
      {"measurement": "variables selected by the random forest model, sorted by average importance", "setting": "[1]", "result": "selected by the random forest model"}
    ]},
    {"molecule": "CC[C@H](C)[C@H](N)C(=O)O", "note": "[Isoleucine]", "values": [
      {"measurement": "variables selected by the random forest model, sorted by average importance", "setting": "[1]", "result": "selected by the random forest model"}
    ]},
    {"molecule": "NCCCC[C@H](N)C(=O)O", "note": "[Lysine]", "values": [
      {"measurement": "association with myelin levels in age-adjusted models across age windows", "setting": "[2]", "result": "linked with higher myelin levels"},
      {"measurement": "nutIntake*logAge estimate", "setting": "[2]", "result": "−0.005"},
      {"measurement": "nutIntake estimate", "setting": "[2]", "result": 0.033}
    ]},
    {"molecule": "CSCC[C@H](N)C(=O)O", "note": "[Methionine]", "values": [
      {"measurement": "variables selected by the random forest model, sorted by average importance", "setting": "[1]", "result": "selected by the random forest model"}
    ]},
    {"molecule": "[P]", "note": "[Phosphorus]", "values": [
      {"measurement": "variables selected by the random forest model, sorted by average importance", "setting": "[1]", "result": "selected by the random forest model"}
    ]},
    {"molecule": "N[C@@H](CO)C(=O)O", "note": "[Serine]", "values": [
      {"measurement": "variables selected by the random forest model, sorted by average importance", "setting": "[1]", "result": "selected by the random forest model"}
    ]},
    {"molecule": "Octadecadienoic acid [Octadecadienoic (Linoleic, 18:2)]", "values": [
      {"measurement": "variables selected by the random forest model, sorted by average importance", "setting": "[1]", "result": "selected by the random forest model"}
    ]},
    {"molecule": "Phosphatidylcholine", "values": [
      {"measurement": "variables selected by the random forest model, sorted by average importance", "setting": "[1]", "result": "selected by the random forest model"}
    ]},
    {"molecule": "Phosphatidylinositol", "values": [
      {"measurement": "variables selected by the random forest model, sorted by average importance", "setting": "[1]", "result": "selected by the random forest model"}
    ]},
    {"molecule": "Phosphatidylserine", "values": [
      {"measurement": "variables selected by the random forest model, sorted by average importance", "setting": "[1]", "result": "selected by the random forest model"}
    ]},
    {"molecule": "Sphingomyelin", "values": [
      {"measurement": "variables selected by the random forest model, sorted by average importance", "setting": "[1]", "result": "selected by the random forest model"}
    ]},
    {"molecule": "α-lactalbumin: whey protein of 123 amino acids and 4 disulfide bridges, molecular weight 14.2K Daltons (protein, UniProt P00711 20-142, looked up) Alpha-lactalbumin: EQLTKCEVFRELKDLKGYGGVSLPEWVCTTFHTSGYDTQAIVQNNDSTEYGLFQINNKIWCKDDQNPHSSNICNISCDKFLDDDLTDDIMCVKKILDKVGINYWLAHKALCSEKLDQWLCEKL", "values": [
      {"measurement": "association with myelin levels in age-adjusted models across age windows", "setting": "[2]", "result": "linked with higher myelin levels"},
      {"measurement": "nutIntake*logAge estimate", "setting": "[2]", "result": "−0.014"},
      {"measurement": "nutIntake estimate", "setting": "[2]", "result": 0.097}
    ]}
  ]
}
